{"source": "ChEMBL document CHEMBL6096669", "about": "“Design and synthesis of novel derivatives of bisepoxylignans as potent anti-inflammatory agents involves the modulation of the M1/M2 microglia phenotype via TLR4/NF-κB signaling pathway” (Eur J Med Chem, 2025)", "key": {"[1]": {"system": "BV-2", "test": "Anti-inflammatory activity against LPS-induced mouse BV-2 cells assessed as decrease in LPS-induced Cyclooxygenase-2 production at 5 uM incubated for 4 hrs followed by LPS induced for 24 hrs by Western blotting analysis", "type": "functional, cell-based"}, "[2]": {"system": "Mus musculus", "test": "(§1) Anti-neuroinflammatory activity against LPS-induced male C57BL/6 mouse assessed as suppression of LPS-induced pathological changes in heart at 20 mg/kg, po administered for 3 days followed by induced with LPS by tail vein injection by hematoxylin-eosin staining based assay", "type": "functional, organism-based", "conditions": "time 3.0 day"}, "[3]": {"system": "Mus musculus", "test": "Anti-neuroinflammatory activity against LPS-induced male C57BL/6 mouse assessed as suppression of LPS-induced pathological changes in liver at 20 mg/kg, po administered for 3 days followed by induced with LPS by tail vein injection by hematoxylin-eosin staining based assay", "type": "functional, organism-based", "conditions": "time 3.0 day"}, "[4]": {"system": "Mus musculus", "test": "Anti-neuroinflammatory activity against LPS-induced male C57BL/6 mouse assessed as suppression of LPS-induced p-I-kappaB-alpha protein level at 10 mg/kg, po administered for 3 days followed by induced with LPS by tail vein injection by Western blot analysis", "type": "functional, organism-based", "conditions": "time 3.0 day"}, "[5]": {"system": "Mus musculus", "test": "Anti-neuroinflammatory activity against LPS-induced male C57BL/6 mouse assessed as suppression of LPS-induced TLR4 protein level at 20 mg/kg, po administered for 3 days followed by induced with LPS by tail vein injection by Western blot analysis", "type": "functional, organism-based", "conditions": "time 3.0 day"}, "[6]": {"system": "BV-2", "test": "Anti-inflammatory activity against LPS-induced mouse BV-2 cells assessed as decrease in LPS-induced Cyclooxygenase-2 mRNA expression at 20 uM incubated for 4 hrs followed by LPS induced for 12 hrs by RT-PCR analysis relative to control", "type": "functional, cell-based", "conditions": "time 16.0 hrs"}, "[7]": {"test": "Inhibition of LPS-induced NO production in mouse BV-2 cells at 10 uM measured after 24 hrs followed by induced with LPS for another 24 hrs by ELISA relative to control", "type": "functional"}, "[8]": {"test": "Tmax in rat at 20 mg/kg, po single dose", "type": "ADME, organism-based", "conditions": "in vivo"}, "[9]": {"test": "Acute toxicity in C57BL/6 mouse assessed as morphological changes in liver by measuring signs of inflammation at 500 mg/kg, po single dose measured on day 8 by H and E staining based assay", "type": "organism-based", "conditions": "in vivo, 192 h, time 8 day"}, "[10]": {"system": "BV-2", "test": "Anti-inflammatory activity against LPS-induced mouse BV-2 cells assessed as decrease in LPS-induced IL-1beta mRNA expression at 5 uM incubated for 4 hrs followed by LPS induced for 12 hrs by RT-PCR analysis relative to control", "type": "functional, cell-based", "conditions": "time 16.0 hrs"}, "[11]": {"test": "MRT in rat at 20 mg/kg, po single dose", "type": "ADME, organism-based", "conditions": "in vivo"}, "[12]": {"system": "BV-2", "test": "Anti-inflammatory activity against LPS-induced mouse BV-2 cells assessed as decrease in LPS-induced IL-6 mRNA expression at 10 to 20 uM incubated for 4 hrs followed by LPS induced for 12 hrs by RT-PCR analysis relative to control", "type": "functional, cell-based", "conditions": "dose 10-20 µM, time 16.0 hrs"}, "[13]": {"test": "AUCall in rat at 20 mg/kg, po single dose", "type": "ADME, organism-based", "conditions": "in vivo"}, "[14]": {"system": "Mus musculus", "test": "Anti-neuroinflammatory activity against LPS-induced male C57BL/6 mouse assessed as suppression of LPS-induced p-NF-kappaB protein level at 10 mg/kg, po administered for 3 days followed by induced with LPS by tail vein injection by Western blot analysis", "type": "functional, organism-based", "conditions": "time 3.0 day"}, "[15]": {"test": "Cytotoxicity against mouse BV-2 cells assessed as cell viability at 10 uM measured after 24 hrs by MTT assay relative to control", "type": "toxicity, cell-based", "conditions": "read-out: Activity"}, "[16]": {"system": "BV-2", "test": "Anti-inflammatory activity against LPS-induced mouse BV-2 cells assessed as decrease in LPS-induced Cyclooxygenase-2 mRNA expression at 5 to 20 uM incubated for 4 hrs followed by LPS induced for 12 hrs by RT-PCR analysis relative to control", "type": "functional, cell-based", "conditions": "dose 5-20 µM, time 16.0 hrs"}, "[17]": {"system": "BV-2", "test": "Anti-inflammatory activity against LPS-induced mouse BV-2 cells assessed as decrease in LPS-induced iNOS mRNA expression at 10 to 20 uM incubated for 4 hrs followed by LPS induced for 12 hrs by RT-PCR analysis relative to control", "type": "functional, cell-based", "conditions": "dose 10-20 µM, time 16.0 hrs"}, "[18]": {"system": "Mus musculus", "test": "Anti-neuroinflammatory activity against LPS-induced male C57BL/6 mouse assessed as suppression of LPS-induced neuronal damage by measuring increase in Nissl bodies at 20 mg/kg, po administered for 3 days followed by induced with LPS by tail vein injection", "type": "functional, organism-based", "conditions": "time 3.0 day"}, "[19]": {"test": "Ratio of AUC in brain to serum in rat at 20 mg/kg, po single dose", "type": "ADME, organism-based"}, "[20]": {"test": "Biodistribution in C57BL/6 mouse liver at 20 mg/kg, IG measured after 15 mins", "type": "ADME, organism-based", "conditions": "in vivo, po, 0.25 h"}, "[21]": {"system": "BV-2", "test": "Anti-inflammatory activity against LPS-induced mouse BV-2 cells assessed as decrease in LPS-induced IL-6 mRNA expression at 5 uM incubated for 4 hrs followed by LPS induced for 12 hrs by RT-PCR analysis relative to control", "type": "functional, cell-based", "conditions": "time 16.0 hrs"}, "[22]": {"system": "Mus musculus", "test": "as §1, with “microglial activation by measuring decrease” for “pathological changes”, “[…] fluorescence intensity” for “heart”, “immunofluorescence” for “hematoxylin-eosin”", "type": "functional, organism-based", "conditions": "time 3.0 day"}, "[23]": {"system": "Mus musculus", "test": "as §1, with “microglial activation by measuring decrease” for “pathological changes”, “IBA1 fluorescence intensity” for “heart”, “immunofluorescence” for “hematoxylin-eosin”", "type": "functional, organism-based", "conditions": "time 3.0 day"}, "[24]": {"system": "BV-2", "test": "Anti-inflammatory activity against LPS-induced mouse BV-2 cells assessed as decrease in LPS-induced TNF-alpha mRNA expression at 5 uM incubated for 4 hrs followed by LPS induced for 12 hrs by RT-PCR analysis relative to control", "type": "functional, cell-based", "conditions": "time 16.0 hrs"}, "[25]": {"test": "Cmax in rat at 20 mg/kg, po single dose", "type": "ADME, organism-based", "conditions": "in vivo"}, "[26]": {"system": "BV-2", "test": "Inhibition of LPS-induced NO production in mouse BV-2 cells measured after 24 hrs followed by induced with LPS for another 24 hrs by ELISA relative to control", "type": "functional, cell-based"}, "[27]": {"system": "Mus musculus", "test": "Anti-neuroinflammatory activity against LPS-induced male C57BL/6 mouse assessed as suppression of LPS-induced p-NF-kappaB protein level at 20 mg/kg, po administered for 3 days followed by induced with LPS by tail vein injection by Western blot analysis", "type": "functional, organism-based", "conditions": "time 3.0 day"}, "[28]": {"system": "BV-2", "test": "Anti-inflammatory activity against LPS-induced mouse BV-2 cells assessed as decrease in LPS-induced TNFalpha production incubated for 4 hrs followed by LPS induced for 24 hrs by Western blotting analysis", "type": "functional, cell-based", "conditions": "dose 5-20 µM, time 28.0 hrs"}, "[29]": {"system": "BV-2", "test": "Anti-inflammatory activity against LPS-induced mouse BV-2 cells assessed as decrease in LPS-induced TNFalpha production at 5 to 10 uM incubated for 4 hrs followed by LPS induced for 24 hrs by Western blotting analysis", "type": "functional, cell-based", "conditions": "dose 5-10 µM"}, "[30]": {"test": "Biodistribution in C57BL/6 mouse kidney at 20 mg/kg, IG measured after 15 mins", "type": "ADME, organism-based", "conditions": "in vivo, po, 0.25 h"}, "[31]": {"system": "Mus musculus", "test": "Anti-neuroinflammatory activity against LPS-induced male C57BL/6 mouse assessed as suppression of LPS-induced pathological changes in spleen at 20 mg/kg, po administered for 3 days followed by induced with LPS by tail vein injection by hematoxylin-eosin staining based assay", "type": "functional, organism-based", "conditions": "time 3.0 day"}, "[32]": {"test": "Half life in rat at 20 mg/kg, po single dose", "type": "ADME, organism-based", "conditions": "in vivo"}, "[33]": {"test": "Acute toxicity in C57BL/6 mouse assessed as morphological changes in kidney by measuring signs of inflammation at 500 mg/kg, po single dose measured on day 8 by H and E staining based assay", "type": "organism-based", "conditions": "in vivo, 192 h, time 8 day"}}, "note": "Activity calls are given as the source filed them. The rule behind the calls is not given here.", "data": [{"compound": "O=c1[nH]c2ccc(Nc3ncnc4c3ccn4Cc3ccc(F)cc3)cc2[nH]1", "values": [{"measurement": "Activity", "setting": "[1]", "result": "Not active; No Significant Effect Observed Vs Lps"}, {"measurement": "Activity", "setting": "[2]", "result": "Active; Decreased Lps-Induced Visceral Injury (Cell Morphology, Hemorrhage, And Neutrophil Infiltration) And Maintaining Normal Cell Shape And Arrangement And Enhancing Infiltration Of Inflammatory Cells"}, {"measurement": "Activity", "setting": "[3]", "result": "Active; Decreased Lps-Induced Visceral Injury (Cell Morphology, Hemorrhage, And Neutrophil Infiltration) And Maintaining Normal Cell Shape And Arrangement And Enhancing Infiltration Of Inflammatory Cells"}, {"measurement": "Activity", "setting": "[4]", "result": "Not active; No Significant Effect Observed Vs Lps"}, {"measurement": "Activity", "setting": "[5]", "result": "Active"}, {"measurement": "Activity", "setting": "[6]", "result": "Active"}, {"measurement": "inhibition at 10 µM", "setting": "[7]", "result": 95, "unit": "%"}, {"measurement": "Tmax", "setting": "[8]", "result": 1, "unit": "h"}, {"measurement": "Activity", "setting": "[9]", "result": "Non-toxic"}, {"measurement": "Activity", "setting": "[10]", "result": "Not active; No Significant Effect Observed Vs Lps"}, {"measurement": "MRT", "setting": "[11]", "result": 6.2, "unit": "h"}, {"measurement": "Activity", "setting": "[12]", "result": "Active"}, {"measurement": "AUC", "setting": "[13]", "result": 43600, "unit": "ng·h/mL"}, {"measurement": "Activity", "setting": "[14]", "result": "Not active; No Significant Effect Observed Vs Lps"}, {"measurement": "viability at 24 h, 10 µM", "setting": "[15]", "result": 95.3, "unit": "%"}, {"measurement": "Activity", "setting": "[16]", "result": "Active"}, {"measurement": "Activity", "setting": "[17]", "result": "Active"}, {"measurement": "Activity", "setting": "[18]", "result": "Active"}, {"measurement": "Ratio", "setting": "[19]", "result": 1.9, "unit": "%"}, {"measurement": "Drug uptake", "setting": "[20]", "result": "Active"}, {"measurement": "Activity", "setting": "[21]", "result": "Not active; No Significant Effect Observed Vs Lps"}, {"measurement": "Activity", "setting": "[22]", "result": "Active"}, {"measurement": "Activity", "setting": "[23]", "result": "Active"}, {"measurement": "Activity", "setting": "[24]", "result": "Not active; No Significant Effect Observed Vs Lps"}, {"measurement": "Cmax", "setting": "[25]", "result": 7490, "unit": "ng/mL"}, {"measurement": "inhibition", "setting": "[26]", "result": "Active"}, {"measurement": "Activity", "setting": "[27]", "result": "Active"}, {"measurement": "Activity", "setting": "[28]", "result": "Dose-dependent-effect"}, {"measurement": "Activity", "setting": "[29]", "result": "Not active; No Significant Effect Observed Vs Lps"}, {"measurement": "Drug uptake", "setting": "[30]", "result": "Active"}, {"measurement": "Activity", "setting": "[31]", "result": "Active; Decreased Lps-Induced Visceral Injury (Cell Morphology, Hemorrhage, And Neutrophil Infiltration) And Maintaining Normal Cell Shape And Arrangement And Enhancing Infiltration Of Inflammatory Cells"}, {"measurement": "half-life", "setting": "[32]", "result": 5.91, "unit": "h"}, {"measurement": "Activity", "setting": "[33]", "result": "Non-toxic"}]}]}
